The text below walks through data of paper PMC7170311 (Journal of Enzyme Inhibition and Medicinal Chemistry, 2020).

For this experiment, the target named is T1, Gal4-DBD-RXRα-LBD (Homo sapiens, UniProt P19793).
T1 sequence (P19793 227-458 limits assumed): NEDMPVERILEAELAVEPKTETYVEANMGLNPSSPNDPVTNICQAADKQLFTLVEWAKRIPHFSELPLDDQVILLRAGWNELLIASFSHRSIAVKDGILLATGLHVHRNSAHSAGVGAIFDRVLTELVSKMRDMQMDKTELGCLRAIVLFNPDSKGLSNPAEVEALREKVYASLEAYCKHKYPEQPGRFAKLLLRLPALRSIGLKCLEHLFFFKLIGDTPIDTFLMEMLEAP
The experiment can be described thus: cell-based. The note with it: HEK-293T, read-out: inhibition of 9-cis-RA-induced RXRα transactivation.

On to `Cc1ccc(NC(=O)NNC(=O)c2ccc(Nc3nccc(-c4cccnc4)n3)cc2)cc1` [Compound 6k, 2-(4-((4-(pyridin-3-yl)pyrimidin-2-yl)amino)benzoyl)-N-(p-tolyl)hydrazine-1-carboxamide], for which the inhibition (usually the relative decrease from the control value, in per cent) at 1 µM was over 50%.
